The values that follow come from ChEMBL document CHEMBL4651402, “Screening of ~5500 FDA-approved drugs and clinical candidates for anti-SARS-CoV-2 activity” (2021).

This experiment concerns SARS-CoV-2. Description: microbe, parasite or virus in culture. Particulars: Severe acute respiratory syndrome coronavirus 2, Vero C1008, 48 h; for IC50: read-out: pIC50 (converted).

pIC50: −log10 of the molar value.

On to `NC(CO)(CO)CO` [TROMETHAMINE], for which the pIC50 was < 4.70 and the IC50 was > 20 µM.
Regarding `O=C1NC(=O)C(c2ccccc2)(c2ccccc2)N1` [PHENYTOIN], the negative logarithm of the IC50 (pIC50) is < 4.70 and the IC50 was > 20 µM.
On the same counts, the results for `CC(=O)NS(=O)(=O)c1ccc(N)cc1` [SULFACETAMIDE] are < 4.70 and > 20 µM.
Taken in the same sequence, the figures for `CN(C)CCOC(c1ccccc1)c1ccnn1C` (centres undefined) [CIZOLIRTINE] were < 4.70 and > 20 µM.
Taken in the same sequence, the figures for `CNC(=O)c1cccc(-c2ccc3c(N4CCOC[C@@H]4C)nc(N4CCOC[C@@H]4C)nc3n2)c1` [VISTUSERTIB] were < 4.70 and > 20 µM.
As to `CC(C)/N=C/Nc1ccc(-c2c[nH]cn2)cc1` [MIFENTIDINE], the pIC50 was < 4.70 and the IC50 was > 20 µM.
As for `[2H]C1([2H])[C@H]2C[C@@H]([C@@H]1Oc1ccc(C(F)(F)F)cn1)N(C(=O)c1cccc(F)c1-c1ncccn1)C2([2H])[2H]`, the negative logarithm of the IC50 (pIC50) was < 4.70 and the IC50 is > 20 µM.
Regarding `O=C(O)c1cc(=O)c2ccccc2o1` [CHROMOCARB], the negative logarithm of the IC50 (pIC50) was < 4.70 and the IC50 is > 20 µM.
Taken in the same sequence, the figures for `O=C(COCCOCCOCC(=O)Nc1c(I)cc(I)c(C(=O)O)c1I)Nc1c(I)cc(I)c(C(=O)O)c1I` [IOTROXIC ACID] were < 4.70 and > 20 µM.
On the same counts, the results for `COc1cc([C@@H]2c3cc4c(cc3[C@@H](O[C@@H]3O[C@@H]5CO[C@@H](c6cccs6)O[C@H]5[C@H](O)[C@H]3O)[C@H]3COC(=O)[C@H]23)OCO4)cc(OC)c1O` [TENIPOSIDE] are < 4.70 and > 20 µM.
On the same counts, the results for `CC1(C)O[C@@H]2C[C@H]3[C@@H]4CCC5=CC(=O)CC[C@]5(C)[C@@]4(F)[C@@H](O)C[C@]3(C)[C@]2(C(=O)CCl)O1` [HALCINONIDE] are < 4.70 and > 20 µM.
Take `CCC1(C)CC(=O)NC1=O` (centres undefined) [ETHOSUXIMIDE]: the negative-log IC50 (pIC50) was < 4.70 and the IC50 is > 20 µM.
Taken in the same sequence, the figures for `COC(=O)Nc1nc2cc([S+]([O-])c3ccccc3)ccc2[nH]1` (centres undefined) [OXFENDAZOLE] were < 4.70 and > 20 µM.
Taken in the same sequence, the figures for `COCCOC(=O)C1=C(C)NC(C)=C(C(=O)OCC=Cc2ccccc2)C1c1cccc([N+](=O)[O-])c1` (centres undefined) were < 4.70 and > 20 µM.
On the same counts, the results for `Cn1c(=O)c2c(ncn2CCN2CCC(C(=O)c3ccc(F)cc3)CC2)n(C)c1=O` [FLUFYLLINE] are < 4.70 and > 20 µM.
With `NC(Cc1c[nH]c2ccc(O)cc12)C(=O)O` (centres undefined), the negative-log IC50 (pIC50) was < 4.70 and the IC50 is > 20 µM.
Taken in the same sequence, the figures for `O=NN(CCCl)C(=O)NC1CCCCC1` [LOMUSTINE] were < 4.70 and > 20 µM.
On the same counts, the results for `Cc1[nH]cnc1C[C@H]1CCc2c(C)c3ccccc3n2C1=O` [FABESETRON] are < 4.70 and > 20 µM.
Take `CC(C)NCC(O)COc1ccc(COCCOC(C)C)cc1` (centres undefined) [BISOPROLOL]: the negative-log IC50 (pIC50) is < 4.70 and the IC50 was > 20 µM.
For `CC(C)CC(NC(=O)C(Cc1ccccc1)NC(=O)CNC(=O)C(C)NC(=O)C(N)Cc1ccc(O)cc1)C(=O)O` (centres undefined), the pIC50 is < 4.70 and the IC50 is > 20 µM.
`Nc1c(Br)cc(Br)cc1CN[C@H]1CC[C@H](O)CC1` [AMBROXOL]: the pIC50 is < 4.70 and the IC50 is > 20 µM.
Taken in the same sequence, the figures for `O=c1[nH]c2ccccc2n1CCCN1CCC(n2c(=O)[nH]c3cc(Cl)ccc32)CC1` [DOMPERIDONE] were < 4.70 and > 20 µM.
For `COc1ccc2c(c1O)-c1c(OC)c(OC)cc3c1[C@H](C2)N(C)CC3` [ISOCORYDINE], the pIC50 was < 4.70 and the IC50 was > 20 µM.
Taken in the same sequence, the figures for `O=C(O)c1cccnc1C(=O)O` [QUINOLINIC ACID] were < 4.70 and > 20 µM.
As for `CCCCC(C)(O)C/C=C/[C@H]1[C@H](O)CC(=O)[C@@H]1CCCCCCC(=O)OC` (some centres undefined) [MISOPROSTOL], the pIC50 is < 4.70 and the IC50 is > 20 µM.
On the same counts, the results for `CC(C)(C)NC(=O)[C@H]1CC[C@H]2[C@H]3CC[C@H]4NC(=O)C=C[C@]4(C)[C@H]3CC[C@]12C` are < 4.70 and > 20 µM.
As for `CC(C)Cn1cnc2c(N)nc3ccccc3c21` [IMIQUIMOD], the pIC50 was < 4.70 and the IC50 was > 20 µM.
Take `Cc1cc(=O)oc2cc(O)ccc12` [HYMECROMONE]: the negative-log IC50 (pIC50) is < 4.70 and the IC50 was > 20 µM.
On the same counts, the results for `Cc1nc(N2CCOC[C@@H]2C)nc(-n2ccnc2)c1[N+](=O)[O-]` are < 4.70 and > 20 µM.
Taken in the same sequence, the figures for `C[C@@H]1CCC[C@@H](C)N1CCCC(O)(c1ccccc1)c1ccccn1` (some centres undefined) were < 4.70 and > 20 µM.
In the case of `Cc1nc2ccccn2c(=O)c1CCN1CCC(C(=O)c2ccc(F)cc2)CC1` [PIRENPERONE], the pIC50 was < 4.70 and the IC50 is > 20 µM.
With `NC(=O)N1c2ccccc2C2OC2c2ccccc21` (centres undefined) [CARBAMAZEPINE EPOXIDE], the negative-log IC50 (pIC50) is < 4.70 and the IC50 is > 20 µM.
Taken in the same sequence, the figures for `S=C(Nc1ccccc1)Nc1nccs1` were < 4.70 and > 20 µM.
On the same counts, the results for `Clc1ccc(C(c2ccccc2Cl)C(Cl)Cl)cc1` (centres undefined) [MITOTANE] are < 4.70 and > 20 µM.
On the same counts, the results for `CC(C(=O)Nc1ccc(Cl)cc1)[C@H]1CC[C@@H](c2ccnc3ccc(F)cc32)CC1` (some centres undefined) are < 4.70 and > 20 µM.
As to `Clc1ccc(C(OCCN2CCCCC2)c2ccccc2)cc1` (centres undefined) [CLOPERASTINE], the pIC50 was < 4.70 and the IC50 was > 20 µM.
Taken in the same sequence, the figures for `CNCCCN1c2ccccc2CCc2ccccc21` [DESIPRAMINE] were < 4.70 and > 20 µM.
On the same counts, the results for `COc1ccc2cc(CCC(C)=O)ccc2c1` [NABUMETONE] are < 4.70 and > 20 µM.
Taken in the same sequence, the figures for `NC(CO)C(=O)NNCc1ccc(O)c(O)c1O` (centres undefined) [BENSERAZIDE] were < 4.70 and > 20 µM.
Consider `C[C@]12CC[C@@H]3c4ccc(OS(=O)(=O)O)cc4CC[C@H]3[C@@H]1CCC2=O` [ESTRONE SULFURIC ACID], for which the pIC50 was < 4.70 and the IC50 was > 20 µM.
As to `COc1cc(C(=O)O)cc(OC)c1O` [SYRINGIC ACID], the negative-log IC50 (pIC50) was < 4.70 and the IC50 is > 20 µM.
With `Cc1cc(CCN2CCN(c3cccc(Cl)c3)CC2)n[nH]1` [MEPIPRAZOLE], the pIC50 is < 4.70 and the IC50 was > 20 µM.
On the same counts, the results for `COc1ccc2c(O[C@H]3C[C@@H]4C(=O)N[C@@]5(C(=O)NS(=O)(=O)C6CC6)C[C@@H]5/C=C\CCCCN(C)C(=O)[C@H]4C3)cc(-c3nc(C(C)C)cs3)nc2c1C` (single isomer, unassigned) are < 4.70 and > 20 µM.
Taken in the same sequence, the figures for `CCOC(=O)CCC(=O)O[C@H]1[C@H](O[C@@H]2[C@@H](C)[C@H](O[C@H]3C[C@@](C)(OC)[C@@H](O)[C@H](C)O3)[C@@H](C)C(=O)O[C@H](CC)[C@@](C)(O)[C@H](O)[C@@H](C)C(=O)[C@H](C)C[C@@]2(C)O)O[C@H](C)C[C@@H]1N(C)C` [ERYTHROMYCIN ETHYLSUCCINATE] were < 4.70 and > 20 µM.
On the same counts, the results for `COc1cccc([C@H](O)C2CCN(CCc3ccc(F)cc3)CC2)c1OC` [VOLINANSERIN] are < 4.70 and > 20 µM.
As to `CCN(CC)CCN(CC)CC(=O)Nc1ccccc1Cl` [CLODACAINE], the negative logarithm of the IC50 (pIC50) is < 4.70 and the IC50 was > 20 µM.
On the same counts, the results for `C[C@@H]1CC[C@@]2(OC1)O[C@H]1C[C@H]3[C@H]4CC[C@H]5C[C@@H](O[C@@H]6O[C@H](CO)[C@@H](O[C@@H]7O[C@H](CO)[C@@H](O)[C@H](O)[C@H]7O)[C@H](O)[C@H]6O)CC[C@@]5(C)[C@H]4CC[C@]3(C)[C@H]1[C@@H]2C` are < 4.70 and > 20 µM.
Taken in the same sequence, the figures for `C=CC(=O)Nc1cc2c(Nc3ccc(F)c(Cl)c3)ncnc2cc1OCCCN1CCOCC1` [CANERTINIB] were < 4.70 and > 20 µM.
Consider `CC[N+](CC)(CC)CCC(O)(c1ccccc1)C1CCCCC1` (centres undefined) [TRIDIHEXETHYL], for which the negative-log IC50 (pIC50) was < 4.70 and the IC50 was > 20 µM.
On the same counts, the results for `CN1C[C@H](C(=O)N[C@]2(C)O[C@@]3(O)[C@@H]4CCCN4C(=O)[C@H](Cc4ccccc4)N3C2=O)C[C@@H]2c3cccc4[nH]cc(c34)C[C@H]21` [DIHYDROERGOTAMINE] are < 4.70 and > 20 µM.
Taken in the same sequence, the figures for `C=C1[C@@H](O)C23C[C@@H]1[C@@H](O)C[C@H]2[C@@]12[C@@H]4[C@H]3C[C@@H]1[C@@](C)(CC[C@@H]2O)CN4CC` were < 4.70 and > 20 µM.
Taken in the same sequence, the figures for `Oc1ccc2c3c1O[C@H]1[C@@H](O)CC[C@@]4(O)C(C2)N(CC2CCC2)CCC314` (some centres undefined) were < 4.70 and > 20 µM.
Regarding `C[C@]12CCC3C(CCC4=C(Cl)C(=O)CC[C@@]43C)C1CCC2O` (some centres undefined), the negative logarithm of the IC50 (pIC50) was < 4.70 and the IC50 is > 20 µM.
Taken in the same sequence, the figures for `CCCC(=O)O[C@]1(C(=O)COC(C)=O)CC[C@H]2[C@@H]3C[C@H](F)C4=CC(=O)C=C[C@]4(C)[C@@]3(F)[C@@H](O)C[C@@]21C` [DIFLUPREDNATE] were < 4.70 and > 20 µM.
Taken in the same sequence, the figures for `NS(=O)(=O)c1cc(Cl)c(Cl)c(S(N)(=O)=O)c1` [DICHLORPHENAMIDE] were < 4.70 and > 20 µM.
On the same counts, the results for `C[C@@H](CC(C(N)=O)(c1ccccc1)c1ccccc1)N(C)C` are < 4.70 and > 20 µM.
`CSc1nc2cc(Cl)c(Oc3cccc(Cl)c3Cl)cc2[nH]1` [TRICLABENDAZOLE]: the negative logarithm of the IC50 (pIC50) was < 4.70 and the IC50 is > 20 µM.
